Reference: paper PMC10600239, “Selective MCL-1 inhibitor ABBV-467 is efficacious in tumor models but is associated with cardiac troponin increases in patients” (Communications Medicine, 2023)

How the values were obtained:
Assay in all cases: Off-target profiling (Supplementary Data 1)
[1] = target: off-target receptors, ion channels, and transporters (Homo sapiens, UniProt O00141); conditions: TR-FRET Kinome; Millipore A-1213250.2 .03(Subs Conc)
[2] = target: off-target receptors, ion channels, and transporters (Homo sapiens, UniProt O43293); conditions: TR-FRET Kinome; Invitrogen A-1180691.2 .1(Subs Conc)
[3] = target: off-target receptors, ion channels, and transporters (Homo sapiens, UniProt O43353); conditions: TR-FRET Kinome; Millipore A-1499319.7 .1(Subs Conc)
[4] = target: off-target receptors, ion channels, and transporters (Homo sapiens, UniProt O75716); conditions: TR-FRET Kinome; Invitrogen A-1213250.2 .0125(Subs Conc)
[5] = target: off-target receptors, ion channels, and transporters (Homo sapiens, UniProt P04150); conditions: CEREP
[6] = target: off-target receptors, ion channels, and transporters (Homo sapiens, UniProt P08069); conditions: TR-FRET Kinome; Invitrogen A-1198909.2 .2(Subs Conc)
[7] = target: off-target receptors, ion channels, and transporters (Homo sapiens, UniProt P17948); conditions: TR-FRET Kinome; Invitrogen A-1167389.7 .0125(Subs Conc)
[8] = target: off-target receptors, ion channels, and transporters (Homo sapiens, UniProt P25101)
[9] = target: off-target receptors, ion channels, and transporters (Homo sapiens, UniProt P29376); conditions: TR-FRET Kinome; Invitrogen A-1224615.7 .0125(Subs Conc)
[10] = target: off-target receptors, ion channels, and transporters (Homo sapiens, UniProt P30291); conditions: TR-FRET Kinome; Carna Biosciences A-1248830.7 .015(Subs Conc)
[11] = target: off-target receptors, ion channels, and transporters (Homo sapiens, UniProt P31749); conditions: TR-FRET Kinome; SignalChem A-1169612.6 .2(Subs Conc)
[12] = target: off-target receptors, ion channels, and transporters (Homo sapiens, UniProt P34947); conditions: TR-FRET Kinome; Invitrogen A-1180691.2 .1(Subs Conc)
[13] = target: off-target receptors, ion channels, and transporters (Homo sapiens, UniProt P35348)
[14] = target: off-target receptors, ion channels, and transporters (Homo sapiens, UniProt P35367)
[15] = target: off-target receptors, ion channels, and transporters (Homo sapiens, UniProt P41240); conditions: TR-FRET Kinome; SignalChem A-1196581.2 .002(Subs Conc)
[16] = target: off-target receptors, ion channels, and transporters (Homo sapiens, UniProt P50750); conditions: TR-FRET Kinome; Invitrogen A-1180691.2 .01(Subs Conc)
[17] = target: off-target receptors, ion channels, and transporters (Homo sapiens, UniProt Q02750); conditions: TR-FRET Kinome; Invitrogen A-1169612.6 .025(Subs Conc)
[18] = target: off-target receptors, ion channels, and transporters (Homo sapiens, UniProt Q06187); conditions: TR-FRET Kinome; Invitrogen A-1167389.7 .2(Subs Conc)
[19] = target: off-target receptors, ion channels, and transporters (Homo sapiens, UniProt Q07343); conditions: read-out: PDE4B2 Human - IC50; Bioprofiling 6pt Antag; cAMP
[20] = target: off-target receptors, ion channels, and transporters (Homo sapiens, UniProt Q13043); conditions: TR-FRET Kinome; Invitrogen A-1167389.7 .025(Subs Conc)
[21] = target: off-target receptors, ion channels, and transporters (Homo sapiens, UniProt Q14164); conditions: TR-FRET Kinome; Invitrogen A-1167389.7 .003(Subs Conc)
[22] = target: off-target receptors, ion channels, and transporters (Homo sapiens, UniProt Q14432); conditions: Bioprofiling 6pt Antag; cAMP
[23] = target: off-target receptors, ion channels, and transporters (Homo sapiens, UniProt Q16539); conditions: TR-FRET Kinome; Invitrogen IVGN Tracer 199 .05(Subs Conc)
[24] = target: off-target receptors, ion channels, and transporters (Homo sapiens, UniProt Q96RR4); conditions: TR-FRET Kinome; Invitrogen A-1167389.7 .005(Subs Conc)
[25] = target: off-target receptors, ion channels, and transporters (Homo sapiens, UniProt Q9UKP6); conditions: CEREP
Chain of off-target receptors, ion channels, and transporters (Homo sapiens, UniProt Q9UKP6) (Q9UKP6 whole entry): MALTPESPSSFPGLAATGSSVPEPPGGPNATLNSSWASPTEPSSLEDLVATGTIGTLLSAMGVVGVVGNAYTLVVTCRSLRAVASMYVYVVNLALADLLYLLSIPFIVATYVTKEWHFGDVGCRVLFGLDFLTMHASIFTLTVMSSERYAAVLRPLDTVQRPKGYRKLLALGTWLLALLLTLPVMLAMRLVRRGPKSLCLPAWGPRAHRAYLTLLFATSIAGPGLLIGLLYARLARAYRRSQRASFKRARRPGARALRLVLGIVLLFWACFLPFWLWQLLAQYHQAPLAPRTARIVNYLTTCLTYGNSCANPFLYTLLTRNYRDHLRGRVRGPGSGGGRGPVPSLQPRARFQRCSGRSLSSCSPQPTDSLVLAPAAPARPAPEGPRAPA

Chain of off-target receptors, ion channels, and transporters (Homo sapiens, UniProt P35348) (P35348 whole entry): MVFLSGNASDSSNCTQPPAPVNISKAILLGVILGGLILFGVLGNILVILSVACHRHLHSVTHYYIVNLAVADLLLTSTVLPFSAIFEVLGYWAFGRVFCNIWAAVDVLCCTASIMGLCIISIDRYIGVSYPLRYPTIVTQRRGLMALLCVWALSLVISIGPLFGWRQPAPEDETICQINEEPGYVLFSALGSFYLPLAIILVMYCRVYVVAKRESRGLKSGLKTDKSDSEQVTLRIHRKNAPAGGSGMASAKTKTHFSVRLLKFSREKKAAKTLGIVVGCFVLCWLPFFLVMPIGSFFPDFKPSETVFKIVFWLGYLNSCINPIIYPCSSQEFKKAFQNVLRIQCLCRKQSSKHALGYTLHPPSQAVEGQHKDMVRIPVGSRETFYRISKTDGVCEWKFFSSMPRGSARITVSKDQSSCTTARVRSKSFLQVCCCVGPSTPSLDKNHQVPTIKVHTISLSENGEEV
Chain of off-target receptors, ion channels, and transporters (Homo sapiens, UniProt P35367) (P35367 whole entry): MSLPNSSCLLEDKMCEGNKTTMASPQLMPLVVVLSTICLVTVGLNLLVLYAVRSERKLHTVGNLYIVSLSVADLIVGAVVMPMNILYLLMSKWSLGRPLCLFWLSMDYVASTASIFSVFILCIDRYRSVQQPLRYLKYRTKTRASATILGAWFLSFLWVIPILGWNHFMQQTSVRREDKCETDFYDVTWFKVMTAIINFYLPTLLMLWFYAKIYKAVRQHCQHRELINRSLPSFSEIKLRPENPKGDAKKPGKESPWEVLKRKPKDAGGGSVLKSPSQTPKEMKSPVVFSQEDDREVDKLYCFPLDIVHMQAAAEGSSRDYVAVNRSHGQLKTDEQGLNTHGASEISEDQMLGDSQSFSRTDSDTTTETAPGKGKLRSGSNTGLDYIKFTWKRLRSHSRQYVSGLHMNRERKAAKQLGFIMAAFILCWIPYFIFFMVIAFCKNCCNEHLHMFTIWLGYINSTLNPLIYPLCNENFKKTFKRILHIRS
Chain of off-target receptors, ion channels, and transporters (Homo sapiens, UniProt P25101) (P25101 21-427): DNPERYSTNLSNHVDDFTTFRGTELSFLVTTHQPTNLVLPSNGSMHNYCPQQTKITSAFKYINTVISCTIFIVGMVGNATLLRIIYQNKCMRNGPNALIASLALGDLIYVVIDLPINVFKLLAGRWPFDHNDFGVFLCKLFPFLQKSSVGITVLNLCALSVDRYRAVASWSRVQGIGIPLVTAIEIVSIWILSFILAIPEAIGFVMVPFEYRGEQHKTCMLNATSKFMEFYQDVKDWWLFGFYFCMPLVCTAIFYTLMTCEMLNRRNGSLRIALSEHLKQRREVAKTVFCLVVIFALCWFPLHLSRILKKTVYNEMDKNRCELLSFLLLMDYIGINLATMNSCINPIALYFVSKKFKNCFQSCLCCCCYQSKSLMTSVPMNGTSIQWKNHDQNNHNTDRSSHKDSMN
Chain of off-target receptors, ion channels, and transporters (Homo sapiens, UniProt Q14164) (Q14164 whole entry): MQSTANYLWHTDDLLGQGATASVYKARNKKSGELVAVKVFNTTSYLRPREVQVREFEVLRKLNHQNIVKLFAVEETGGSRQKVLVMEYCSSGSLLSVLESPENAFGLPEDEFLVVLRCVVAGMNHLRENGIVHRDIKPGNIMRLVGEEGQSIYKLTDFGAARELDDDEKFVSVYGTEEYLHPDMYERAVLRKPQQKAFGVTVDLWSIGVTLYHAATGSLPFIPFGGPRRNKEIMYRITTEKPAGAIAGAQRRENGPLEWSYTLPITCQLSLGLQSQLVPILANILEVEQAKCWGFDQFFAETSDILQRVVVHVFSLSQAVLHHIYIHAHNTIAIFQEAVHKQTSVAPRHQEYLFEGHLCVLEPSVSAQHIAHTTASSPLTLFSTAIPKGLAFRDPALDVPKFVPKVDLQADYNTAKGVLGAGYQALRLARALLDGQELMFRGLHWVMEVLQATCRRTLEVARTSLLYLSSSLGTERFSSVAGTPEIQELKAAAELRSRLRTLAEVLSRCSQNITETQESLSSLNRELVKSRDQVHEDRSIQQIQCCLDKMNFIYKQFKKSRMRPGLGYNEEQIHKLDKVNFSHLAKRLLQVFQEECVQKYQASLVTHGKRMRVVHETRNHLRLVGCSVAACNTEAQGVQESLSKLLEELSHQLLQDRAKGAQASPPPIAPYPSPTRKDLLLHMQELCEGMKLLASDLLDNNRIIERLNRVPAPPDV
Chain of off-target receptors, ion channels, and transporters (Homo sapiens, UniProt P34947) (P34947 whole entry): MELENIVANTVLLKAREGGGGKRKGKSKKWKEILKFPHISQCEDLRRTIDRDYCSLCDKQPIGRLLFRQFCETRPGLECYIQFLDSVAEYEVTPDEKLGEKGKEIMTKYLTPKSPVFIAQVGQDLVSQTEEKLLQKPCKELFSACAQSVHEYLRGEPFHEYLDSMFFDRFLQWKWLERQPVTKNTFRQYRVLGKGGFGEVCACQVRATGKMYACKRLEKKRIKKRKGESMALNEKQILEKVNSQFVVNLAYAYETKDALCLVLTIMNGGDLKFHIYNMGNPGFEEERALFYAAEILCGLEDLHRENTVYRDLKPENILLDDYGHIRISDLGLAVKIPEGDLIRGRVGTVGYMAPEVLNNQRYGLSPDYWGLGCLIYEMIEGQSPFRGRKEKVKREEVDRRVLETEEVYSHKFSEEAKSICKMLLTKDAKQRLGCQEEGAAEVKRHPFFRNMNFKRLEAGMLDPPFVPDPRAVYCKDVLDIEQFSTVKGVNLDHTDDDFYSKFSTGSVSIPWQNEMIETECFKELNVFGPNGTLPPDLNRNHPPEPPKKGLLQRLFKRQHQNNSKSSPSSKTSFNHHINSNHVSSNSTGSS
Chain of off-target receptors, ion channels, and transporters (Homo sapiens, UniProt P17948) (P17948 27-1338): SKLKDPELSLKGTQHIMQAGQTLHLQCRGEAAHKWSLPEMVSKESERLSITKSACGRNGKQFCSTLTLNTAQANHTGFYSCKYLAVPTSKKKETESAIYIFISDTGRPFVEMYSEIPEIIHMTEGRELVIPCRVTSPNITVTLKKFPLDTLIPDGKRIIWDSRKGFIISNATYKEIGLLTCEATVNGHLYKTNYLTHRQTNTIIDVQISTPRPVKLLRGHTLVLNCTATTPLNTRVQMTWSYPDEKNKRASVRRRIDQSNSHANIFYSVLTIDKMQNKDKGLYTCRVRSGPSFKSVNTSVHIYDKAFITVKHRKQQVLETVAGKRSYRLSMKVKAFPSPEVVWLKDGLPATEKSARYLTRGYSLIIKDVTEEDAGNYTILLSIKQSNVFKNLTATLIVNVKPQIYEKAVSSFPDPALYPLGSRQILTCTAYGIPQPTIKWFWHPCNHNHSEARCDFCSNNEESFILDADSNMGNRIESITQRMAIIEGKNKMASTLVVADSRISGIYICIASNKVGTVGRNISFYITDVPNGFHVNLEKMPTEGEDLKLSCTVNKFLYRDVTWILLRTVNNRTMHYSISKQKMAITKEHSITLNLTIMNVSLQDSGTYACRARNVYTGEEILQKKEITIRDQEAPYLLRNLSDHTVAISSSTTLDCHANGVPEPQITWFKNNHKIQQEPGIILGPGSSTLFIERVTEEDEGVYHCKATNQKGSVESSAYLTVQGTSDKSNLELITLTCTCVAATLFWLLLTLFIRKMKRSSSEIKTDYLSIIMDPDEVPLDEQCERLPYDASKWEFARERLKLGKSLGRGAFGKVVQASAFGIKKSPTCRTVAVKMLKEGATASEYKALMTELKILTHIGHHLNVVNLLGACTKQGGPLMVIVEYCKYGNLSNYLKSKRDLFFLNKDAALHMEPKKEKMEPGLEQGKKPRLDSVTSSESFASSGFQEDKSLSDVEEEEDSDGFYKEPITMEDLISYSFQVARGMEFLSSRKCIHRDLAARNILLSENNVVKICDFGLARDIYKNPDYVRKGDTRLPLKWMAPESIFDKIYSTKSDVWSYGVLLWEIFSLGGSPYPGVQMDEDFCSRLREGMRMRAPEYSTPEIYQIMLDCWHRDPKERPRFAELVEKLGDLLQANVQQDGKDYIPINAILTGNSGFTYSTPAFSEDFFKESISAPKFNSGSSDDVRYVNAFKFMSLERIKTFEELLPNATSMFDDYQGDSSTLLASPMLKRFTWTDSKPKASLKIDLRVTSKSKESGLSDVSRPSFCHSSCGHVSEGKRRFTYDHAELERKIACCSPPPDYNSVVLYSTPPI
Chain of off-target receptors, ion channels, and transporters (Homo sapiens, UniProt O75716) (O75716 whole entry): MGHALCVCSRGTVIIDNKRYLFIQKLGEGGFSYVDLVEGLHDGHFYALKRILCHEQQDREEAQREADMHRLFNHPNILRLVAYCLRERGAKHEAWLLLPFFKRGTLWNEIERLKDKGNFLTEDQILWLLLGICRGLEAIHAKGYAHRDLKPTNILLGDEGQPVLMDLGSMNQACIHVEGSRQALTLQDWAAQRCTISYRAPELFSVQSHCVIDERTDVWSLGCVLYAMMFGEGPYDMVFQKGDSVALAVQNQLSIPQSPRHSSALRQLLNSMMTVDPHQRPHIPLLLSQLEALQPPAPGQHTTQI

Cc1c(Cl)c2c(Cl)c(C)c1-c1c(-c3ccc(F)cc3)sc3ncnc(c13)O[C@@H](C(=O)O)Cc1cc(ccc1OCc1ccnc(-c3ccc(OC[C@H]4COCCO4)cc3)n1)OC[C@@H](CN1CCN(C)CC1)O2 [ABBV-467]
> 10 µM: SGK1 - IC50 [1] | Zipk - IC50 [2] | RIPK2 - IC50 [3] | STK16 - IC50 [4] | IGF1R - IC50 [6] | Flt1 - IC50 [7] | ETA CHO Human - EC50 ([8]; Bioprofiling 6pt Ag) | ETA CHO Human - IC50 ([8]; Bioprofiling 6pt Antag, Endothelin-1 (ET-1)) | LTK - IC50 [9] | Wee1 - IC50 [10] | Akt1 - IC50 [11] | GRK5 - IC50 [12] | EC50 ([13]; read-out: Alpha1A CHO Human - EC50, Bioprofiling 6pt Ag) | IC50 ([13]; read-out: Alpha1A CHO Human - IC50, Bioprofiling 6pt Antag, A-61603) | H1 CHO Human - EC50 ([14]; Bioprofiling 6pt Ag) | H1 CHO Human - IC50 ([14]; Bioprofiling 6pt Antag, Histamine) | CSK - IC50 [15] | MEK1 - IC50 [17] | BTK - IC50 [18] | IC50 [19] | MST1 - IC50 [20] | IKKE - IC50 [21] | PDE3A Human - IC50 [22] | p38 alpha - IC50 [23] | CAMKK2 - IC50 [24]
4.24 µM: CDK9/Cyclin K - IC50 [16]
1 µM: Glucocorticoid Human Agonist Ligand (Binding Assay) - IC50 [5]
> 30 µM: EC50 ([25]; read-out: Urotensin-II (UT1) Human (Functional - Agonist Effect) - EC50) | IC50 ([25]; read-out: Urotensin-II (UT1) Human (Functional - Antagonist Effect) - IC50)
